In patent US9340590B2 (priority 2011, dated 2016):
Read-outs that look alike come from different tables or passages of the source. Positions of bridges follow the written chain, without caps; N, C: chain ends. Residues, ends and D or L forms follow the SMILES beside them.

Target: hNav1.3 (Homo sapiens, UniProt Q9NY46)
Assay: cell-based
Conditions: for IC50: IonWorks Quattro, read-out: IWQ Use Nav1.3
[1] = use-dependent protocol, hNav1.3

hNav1.3, sequence (Q9NY46 whole entry, looked up): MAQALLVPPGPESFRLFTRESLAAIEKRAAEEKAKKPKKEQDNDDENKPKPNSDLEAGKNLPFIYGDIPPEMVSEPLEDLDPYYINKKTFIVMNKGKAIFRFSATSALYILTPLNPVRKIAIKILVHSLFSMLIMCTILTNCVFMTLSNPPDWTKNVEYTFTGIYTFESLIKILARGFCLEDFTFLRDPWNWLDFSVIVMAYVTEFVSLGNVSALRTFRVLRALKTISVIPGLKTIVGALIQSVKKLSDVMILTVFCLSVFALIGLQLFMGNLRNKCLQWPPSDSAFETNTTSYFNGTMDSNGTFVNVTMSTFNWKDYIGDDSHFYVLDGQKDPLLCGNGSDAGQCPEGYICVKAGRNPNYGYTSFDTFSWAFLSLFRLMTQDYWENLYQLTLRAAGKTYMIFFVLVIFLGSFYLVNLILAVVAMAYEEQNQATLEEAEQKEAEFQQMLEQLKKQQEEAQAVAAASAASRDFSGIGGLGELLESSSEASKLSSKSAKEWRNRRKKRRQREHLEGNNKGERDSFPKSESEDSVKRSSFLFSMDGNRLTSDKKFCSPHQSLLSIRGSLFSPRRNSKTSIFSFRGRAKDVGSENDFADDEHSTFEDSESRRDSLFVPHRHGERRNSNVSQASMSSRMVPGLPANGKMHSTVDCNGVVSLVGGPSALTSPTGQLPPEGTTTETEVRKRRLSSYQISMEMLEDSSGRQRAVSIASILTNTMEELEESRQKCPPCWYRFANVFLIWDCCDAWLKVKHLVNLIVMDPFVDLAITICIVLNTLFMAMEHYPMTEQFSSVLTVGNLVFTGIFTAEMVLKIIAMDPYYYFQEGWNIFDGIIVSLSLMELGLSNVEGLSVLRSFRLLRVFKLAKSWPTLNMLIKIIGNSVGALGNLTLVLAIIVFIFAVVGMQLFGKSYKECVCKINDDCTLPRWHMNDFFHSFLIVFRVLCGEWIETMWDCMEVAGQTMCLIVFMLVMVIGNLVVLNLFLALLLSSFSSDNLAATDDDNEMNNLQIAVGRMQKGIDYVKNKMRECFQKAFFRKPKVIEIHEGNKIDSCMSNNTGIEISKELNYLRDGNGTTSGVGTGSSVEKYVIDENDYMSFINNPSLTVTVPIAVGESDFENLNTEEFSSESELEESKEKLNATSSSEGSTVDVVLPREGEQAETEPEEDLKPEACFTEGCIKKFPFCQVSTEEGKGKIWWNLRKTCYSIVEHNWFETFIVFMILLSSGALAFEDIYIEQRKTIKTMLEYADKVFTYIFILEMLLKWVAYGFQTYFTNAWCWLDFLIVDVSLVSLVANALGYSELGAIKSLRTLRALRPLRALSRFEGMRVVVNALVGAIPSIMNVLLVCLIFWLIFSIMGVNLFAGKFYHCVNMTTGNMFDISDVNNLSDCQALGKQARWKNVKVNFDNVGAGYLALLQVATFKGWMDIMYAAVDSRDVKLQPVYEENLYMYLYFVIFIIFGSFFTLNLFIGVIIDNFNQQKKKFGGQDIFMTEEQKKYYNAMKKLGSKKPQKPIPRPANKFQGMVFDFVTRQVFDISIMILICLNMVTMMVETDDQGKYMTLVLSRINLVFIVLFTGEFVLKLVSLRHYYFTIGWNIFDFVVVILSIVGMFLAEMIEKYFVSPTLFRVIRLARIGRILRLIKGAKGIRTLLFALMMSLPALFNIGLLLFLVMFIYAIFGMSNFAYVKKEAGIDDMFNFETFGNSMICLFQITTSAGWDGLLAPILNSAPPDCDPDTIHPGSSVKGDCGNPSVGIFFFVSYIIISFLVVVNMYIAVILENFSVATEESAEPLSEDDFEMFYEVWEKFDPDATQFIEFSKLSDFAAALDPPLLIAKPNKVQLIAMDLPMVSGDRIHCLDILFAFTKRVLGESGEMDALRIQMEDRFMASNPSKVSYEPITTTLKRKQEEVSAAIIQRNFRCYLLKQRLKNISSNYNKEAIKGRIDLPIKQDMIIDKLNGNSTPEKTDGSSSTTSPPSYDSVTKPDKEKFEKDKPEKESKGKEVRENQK

## CC[C@H](C)[C@@H]1NC(=O)[C@@H]2CSSC[C@@H]3NC(=O)[C@H](C(C)C)NC(=O)[C@H](CC(C)C)NC(=O)[C@H](CC(N)=O)NC(=O)[C@@H]4CCCN4C(=O)[C@H](CCCNC(=N)N)NC(=O)[C@H](CSSC[C@H](NC(=O)[C@@H](N)CC(=O)O)C(=O)N[C@@H](CC(C)C)C(=O)NCC(=O)N[C@@H](C)C(=O)N[C@@H](CC(C)C)C(=O)N[C@@H](CCCNC(=N)N)C(=O)N[C@@H](CCCCN)C(=O)N2)NC(=O)[C@H](CSSC[C@@H](C(=O)N[C@@H](CCCCN)C(=O)N[C@@H](Cc2ccc(O)cc2)C(=O)N[C@H](C(=O)N[C@@H](Cc2ccccc2)C(N)=O)C(C)C)NC(=O)[C@H](Cc2c[nH]c4ccccc24)NC(=O)[C@H](CCCNC(=N)N)NC(=O)[C@H](Cc2cnc[nH]2)NC(=O)[C@H]([C@@H](C)O)NC(=O)[C@H](CCCNC(=N)N)NC(=O)[C@H](CO)NC3=O)NC(=O)[C@H](CCCCN)NC(=O)[C@H](CC(=O)O)NC(=O)[C@H](CC(N)=O)NC(=O)[C@H](CC(=O)O)NC(=O)[C@@H]2CCCN2C1=O [compound 810] (H-DCLGALRKCIPDNDKCCRPNLVCSRTHRWCKYVF-NH2; disulfide 2-17, 9-23, 16-30)
use-dependent block, hNav1.3
  IC50: 0.2 µM

## CC[C@H](C)[C@@H]1NC(=O)[C@@H]2CSSC[C@@H]3NC(=O)[C@H](C(C)C)NC(=O)[C@H](CC(C)C)NC(=O)[C@H](CC(N)=O)NC(=O)[C@@H]4CCCN4C(=O)[C@H](CCCNC(=N)N)NC(=O)[C@H](CSSC[C@H](NC(=O)[C@@H](N)CC(=O)O)C(=O)N[C@@H](CC(C)C)C(=O)NCC(=O)N[C@@H](C)C(=O)N[C@@H](Cc4ccccc4)C(=O)N[C@@H](CCCNC(=N)N)C(=O)N[C@@H](CCCCN)C(=O)N2)NC(=O)[C@H](CSSC[C@@H](C(=O)N[C@@H](CCCCN)C(=O)N[C@@H](Cc2ccc(O)cc2)C(=O)N[C@H](C(=O)N[C@@H](Cc2ccccc2)C(N)=O)C(C)C)NC(=O)[C@H](Cc2c[nH]c4ccccc24)NC(=O)[C@H](CCCNC(=N)N)NC(=O)[C@H](Cc2cnc[nH]2)NC(=O)[C@H]([C@@H](C)O)NC(=O)[C@H](CCCNC(=N)N)NC(=O)[C@H](CO)NC3=O)NC(=O)[C@H](CCCCN)NC(=O)[C@H](CC(=O)O)NC(=O)[C@H](CC(N)=O)NC(=O)[C@H](CC(=O)O)NC(=O)[C@@H]2CCCN2C1=O [compound 809] (H-DCLGAFRKCIPDNDKCCRPNLVCSRTHRWCKYVF-NH2; disulfide 2-17, 9-23, 16-30)
use-dependent block, hNav1.3
  IC50: 0.3 µM

## CC[C@H](C)[C@@H]1NC(=O)[C@@H]2CSSC[C@@H]3NC(=O)[C@H](C(C)C)NC(=O)[C@H](CC(C)C)NC(=O)[C@H](CC(N)=O)NC(=O)[C@@H]4CCCN4C(=O)[C@H](CCCNC(=N)N)NC(=O)[C@H](CSSC[C@H](NC(=O)[C@@H](N)CC(=O)O)C(=O)N[C@@H](CC(C)C)C(=O)NCC(=O)N[C@@H](Cc4ccccc4)C(=O)N[C@@H](CCSC)C(=O)N[C@@H](CCCNC(=N)N)C(=O)N[C@@H](CCCCN)C(=O)N2)NC(=O)[C@H](CSSC[C@@H](C(=O)N[C@@H](CCCCN)C(=O)N[C@@H](Cc2ccc(O)cc2)C(=O)N[C@H](C(=O)N[C@@H](Cc2ccccc2)C(N)=O)C(C)C)NC(=O)[C@H](Cc2c[nH]c4ccccc24)NC(=O)[C@H](CC(=O)O)NC(=O)[C@H](Cc2cnc[nH]2)NC(=O)[C@H]([C@@H](C)O)NC(=O)[C@H](CCCNC(=N)N)NC(=O)[C@H](CO)NC3=O)NC(=O)[C@H](CCCCN)NC(=O)[C@H](CC(=O)O)NC(=O)[C@H](CC(N)=O)NC(=O)[C@H](CC(=O)O)NC(=O)[C@@H]2CCCN2C1=O [SEQ ID NO: 750, [Asp28]GpTx-1] (H-DCLGFMRKCIPDNDKCCRPNLVCSRTHDWCKYVF-NH2; disulfide 2-17, 9-23, 16-30)
use-dependent block, hNav1.3
  IC50: 0.77 µM

## CC[C@H](C)[C@@H]1NC(=O)[C@@H]2CSSC[C@@H]3NC(=O)[C@H](C(C)C)NC(=O)[C@H](CC(C)C)NC(=O)[C@H](CC(N)=O)NC(=O)[C@@H]4CCCN4C(=O)[C@H](CCCNC(=N)N)NC(=O)[C@H](CSSC[C@H](NC(=O)[C@@H](N)CC(=O)O)C(=O)N[C@@H](CC(C)C)C(=O)NCC(=O)N[C@@H](C)C(=O)N[C@@H](CC(C)C)C(=O)N[C@@H](CCCNC(=N)N)C(=O)N[C@@H](CCCCN)C(=O)N2)NC(=O)[C@H](CSSC[C@@H](C(=O)N[C@@H](CCCCN)C(=O)N[C@@H](Cc2ccc(O)cc2)C(=O)N[C@H](C(=O)N[C@@H](Cc2ccccc2)C(N)=O)C(C)C)NC(=O)[C@H](Cc2c[nH]c4ccccc24)NC(=O)[C@H](CCCCN)NC(=O)[C@H](Cc2cnc[nH]2)NC(=O)[C@H]([C@@H](C)O)NC(=O)[C@H](CCCNC(=N)N)NC(=O)[C@H](CO)NC3=O)NC(=O)[C@H](CCCCN)NC(=O)[C@H](CC(=O)O)NC(=O)[C@H](CC(N)=O)NC(=O)[C@H](CC(=O)O)NC(=O)[C@@H]2CCCN2C1=O [compound 696]
[1]
  IC50: 0.75 µM

## CSCC[C@@H]1NC(=O)[C@H](Cc2ccccc2)NC(=O)CNC(=O)[C@H](CC(C)C)NC(=O)[C@@H](NC(=O)[C@@H](N)CC(=O)O)CSSC[C@@H]2NC(=O)[C@@H]3CSSC[C@@H](C(=O)N[C@@H](CCCCN)C(=O)N[C@@H](Cc4ccc(O)cc4)C(=O)N[C@H](C(=O)N[C@@H](Cc4ccccc4)C(N)=O)C(C)C)NC(=O)[C@H](Cc4c[nH]c5ccccc45)NC(=O)[C@H](CCCCN)NC(=O)[C@H](Cc4cnc[nH]4)NC(=O)[C@H]([C@@H](C)O)NC(=O)[C@H](CCCNC(=N)N)NC(=O)[C@H](CO)NC(=O)[C@H](CSSC[C@H](NC(=O)[C@H](CCCCN)NC(=O)[C@H](CCCNC(=N)N)NC1=O)C(=O)N[C@@H]([C@@H](C)O)C(=O)N1CCC[C@H]1C(=O)N[C@@H](CC(=O)O)C(=O)N[C@@H](CC(N)=O)C(=O)N[C@@H](CC(=O)O)C(=O)N[C@@H](CCCCN)C(=O)N3)NC(=O)[C@H](C(C)C)NC(=O)[C@H](CC(C)C)NC(=O)[C@H](CC(N)=O)NC(=O)[C@@H]1CCCN1C(=O)[C@H](CCCNC(=N)N)NC2=O [compound 309] (H-DCLGFMRKCTPDNDKCCRPNLVCSRTHKWCKYVF-NH2; disulfide 2-17, 9-23, 16-30)
Use
  IC50: 0.06 µM

## CC[C@H](C)[C@@H]1NC(=O)[C@@H]2CSSC[C@@H]3NC(=O)[C@H](C(C)C)NC(=O)[C@H](CC(C)C)NC(=O)[C@H](CC(N)=O)NC(=O)[C@@H]4CCCN4C(=O)[C@H](CCCNC(=N)N)NC(=O)[C@H](CSSC[C@H](NC(=O)[C@@H](N)CC(=O)O)C(=O)N[C@@H](CC(C)C)C(=O)NCC(=O)N[C@@H](Cc4ccc(OC)c(OC)c4)C(=O)N[C@@H](CCSC)C(=O)N[C@@H](CCCNC(=N)N)C(=O)N[C@@H](CCCCN)C(=O)N2)NC(=O)[C@H](CSSC[C@@H](C(=O)N[C@@H](CCCCN)C(=O)N[C@@H](Cc2ccc(O)cc2)C(=O)N[C@H](C(=O)N[C@@H](Cc2ccccc2)C(N)=O)C(C)C)NC(=O)[C@H](Cc2c[nH]c4ccccc24)NC(=O)[C@H](CCCCN)NC(=O)[C@H](Cc2c[nH]cn2)NC(=O)[C@H]([C@@H](C)O)NC(=O)[C@H](CCCNC(=N)N)NC(=O)[C@H](CO)NC3=O)NC(=O)[C@H](CCCCN)NC(=O)[C@H](CC(=O)O)NC(=O)[C@H](CC(N)=O)NC(=O)[C@H](CC(=O)O)NC(=O)[C@@H]2CCCN2C1=O [compound 652]
Ratio of IWQ Use values, Nav1.7 over Nav1.3
  Nav1.7/Nav1.3: 0.8

## CC[C@H](C)[C@@H]1NC(=O)[C@@H]2CSSC[C@@H]3NC(=O)[C@H](C(C)C)NC(=O)[C@H](CC(C)C)NC(=O)[C@H](CC(N)=O)NC(=O)[C@@H]4CCCN4C(=O)[C@H](CCCNC(=N)N)NC(=O)[C@H](CSSC[C@H](NC(=O)[C@@H](N)CC(=O)O)C(=O)N[C@@H](CC(C)C)C(=O)NCC(=O)N[C@H](C)C(=O)N[C@@H](CC(C)C)C(=O)N[C@@H](CCCNC(=N)N)C(=O)N[C@@H](CCCCN)C(=O)N2)NC(=O)[C@H](CSSC[C@@H](C(=O)N[C@@H](CCCCN)C(=O)N[C@@H](Cc2ccc(O)cc2)C(=O)N[C@H](C(=O)N[C@@H](Cc2ccccc2)C(N)=O)C(C)C)NC(=O)[C@H](Cc2c[nH]c4ccccc24)NC(=O)[C@H](CCCCN)NC(=O)[C@H](Cc2c[nH]cn2)NC(=O)[C@H]([C@@H](C)O)NC(=O)[C@H](CCCNC(=N)N)NC(=O)[C@H](CO)NC3=O)NC(=O)[C@H](CCCCN)NC(=O)[C@H](CC(=O)O)NC(=O)[C@H](CC(N)=O)NC(=O)[C@H](CC(=O)O)NC(=O)[C@@H]2CCCN2C1=O [compound 633]
[1]
  IC50: 11.5 µM

## CC[C@H](C)[C@@H]1NC(=O)[C@@H]2CSSC[C@@H]3NC(=O)[C@H](C(C)C)NC(=O)[C@H](CC(C)C)NC(=O)[C@H](CC(N)=O)NC(=O)[C@@H]4CCCN4C(=O)[C@H](CCCNC(=N)N)NC(=O)[C@H](CSSC[C@H](NC(=O)[C@@H](N)CC(=O)O)C(=O)N[C@@H](CC(C)C)C(=O)NCC(=O)N[C@@H](Cc4ccccc4)C(=O)N[C@@H](Cc4ccccc4)C(=O)N[C@@H](CCCNC(=N)N)C(=O)N[C@@H](CCCCN)C(=O)N2)NC(=O)[C@H](CSSC[C@@H](C(=O)N[C@@H](CCCCN)C(=O)N[C@@H](Cc2ccc(O)cc2)C(=O)N[C@H](C(=O)N[C@@H](Cc2ccccc2)C(=O)N[C@@H](Cc2cn(CCOCCOCCOCCOCCOCCOCCOCCOCCOCCOCCN)nn2)C(N)=O)C(C)C)NC(=O)[C@H](Cc2c[nH]c4ccccc24)NC(=O)[C@H](CCCCN)NC(=O)[C@H](Cc2c[nH]cn2)NC(=O)[C@H](CC(C)C)NC(=O)[C@H](CCCNC(=N)N)NC(=O)[C@H](CO)NC3=O)NC(=O)[C@H](CCCCN)NC(=O)[C@H](CC(=O)O)NC(=O)[C@H](CC(N)=O)NC(=O)[C@H](CC(=O)O)NC(=O)[C@@H]2CCCN2C1=O [compound 588]
Ratio of IWQ Use IC50 values
  Nav1.7/Nav1.3: 3.3
